Patent US8871681B2, “Herbicidal compositions comprising 4-amino-3-chloro-5-fluoro-6-(4-chloro-2-fluoro-3-methoxyphenyl) pyridine-2-carboxylic acid or a derivative thereof and certain sulfonylureas” (Dow AgroSciences LLC, priority 2012, dated 2014)

Experiments:
[1] = system: SCPJU (Schoenoplectus juncoides, Japanese bulrush); assay: Postemergence foliar-applied weed control, direct seeded rice, greenhouse (Example I); format: in vivo, Schoenoplectus juncoides (Roxb.) Palla; details: 21 DAA
Description: Seeds or nutlets of the desired test plant species were planted in a soil matrix prepared by mixing a loam or sandy loam soil (e.g., 28.6 percent silt, 18.8 percent clay, and 52.6 percent sand, with a pH of about 5.8 and an organic matter content of about 1.8 percent) and calcareous grit in an 80 to 20 ratio. The soil matrix was contained in plastic pots with a volume of 1 quart and a surface area of 83.6 square centimeters (cm^2). When required to ensure good germination and healthy plants, a fungicide treatment and/or other chemical or physical treatment was applied. The plants were grown for 8-22 days in a greenhouse with an approximate 14 h photoperiod which was maintained at about 29° C. during the day and 26° C. during the night. Nutrients (Peters Excel® 15-5-15 5-Ca 2-Mg and iron chelate) were applied in the irrigation solution as needed and water was added on a regular basis. Supplemental lighting was provided with overhead metal halide 1000-Watt lamps as necessary. The plants were employed for testing when they reached the first through fourth true leaf stage.
Treatments consisted of the acid or esters of 4-amino-3-chloro-5-fluoro-6-(4-chloro-2-fluoro-3-methoxy-phenyl)pyridine-2-carboxylic acid (Compound A), each formulated as an SC, and various herbicidal components alone and in combination. Forms of compound A were applied on an acid equivalent basis. […]
Treatment requirements were calculated based upon the rates being tested, the concentration of active ingredient or acid equivalent in the formulation, and a 12 mL application volume at a rate of 187 L/ha.
For treatments comprised of formulated compounds, measured amounts of compounds were placed individually in 25 mL glass vials and diluted in a volume of 1.25% (v/v) Agri-Dex® crop oil concentrated to obtain 12× stock solutions. […]
For treatments comprised of formulated and technical compounds, weighed amounts of the technical materials were placed individually in 25 mL glass vials and dissolved in a volume of 97:3 v/v acetone/DMSO to obtain 12× stock solutions, and measured amounts of the formulated compounds were placed individually in 25 mL glass vials and diluted in a volume of 1.25% (v/v) crop oil concentrate to obtain 12× stock solutions. […]

[2] = system: CYPRO (Cyperus rotundus, purple nutsedge); assay: In-water applied weed control, transplanted paddy rice, greenhouse (Example II); format: in vivo, Cyperus rotundus L.
Procedure: Weed seeds or nutlets of the desired test plant species were planted in puddled soil (mud) prepared by mixing a shredded, non-sterilized mineral soil (50.5 percent silt, 25.5 percent clay, and 24 percent sand, with a pH of about 7.6 and an organic matter content of about 2.9 percent) and water at a 1:1 volumetric ratio. The prepared mud was dispensed in 365 mL aliquots into 16-ounce (oz.) non-perforated plastic pots with a surface area of 86.59 square centimeters (cm^2) leaving a headspace of 3 centimeters (cm) in each pot. Rice seeds were planted in Sun Gro MetroMix® 306 planting mixture, which typically has a pH of 6.0 to 6.8 and an organic matter content of about 30 percent, in plastic plug trays. Seedlings at the second or third leaf stage of growth were transplanted into 860 mL of mud contained in 32-oz. non-perforated plastic pots with a surface area of 86.59 cm^2 4 days prior to herbicide application. The paddy was created by filling the headspace of the pots with 2.5 to 3 cm of water. When required to ensure good germination and healthy plants, a fungicide treatment and/or other chemical or physical treatment was applied. The plants were grown for 4-22 days in a greenhouse with an approximate 14 h photoperiod which was maintained at about 29′C during the day and 26° C. during the night. Nutrients were added as Osmocote® (19:6:12, N:P:K+minor nutrients) at 2 g per 16-oz. pot and 4 g per 32-oz. pot. Water was added on a regular basis to maintain the paddy flood, and supplemental lighting was provided with overhead metal halide 1000-Watt lamps as necessary. The plants were employed for testing when they reached the first through fourth true leaf stage.
Treatments consisted of the acid or esters of 4-amino-3-chloro-5-fluoro-6-(4-chloro-2-fluoro-3-methoxy-phenyl)pyridine-2-carboxylic acid (compound A) each formulated as an SC and various herbicidal components alone and in combination. Forms of compound A were applied on an acid equivalent basis.
Other herbicidal components were applied on an active ingredient basis and included acetolactate synthase (ALS)-inhibiting herbicides (sulfonylurea chemical class), azimsulfuron formulated as Gulliver®, bensulfuron-methyl formulated as Londax® 60DF, cyclosulfamuron (technical grade materail), ethoxysulfuron formulated as Sunrice® 15 WDG, flucetosulfuron formulated as Sukedachi® 1KG G, imazosulfuron formulated as Brazzos®, metsulfuron-methyl formulated as Lorate®, nicosulfuron formulated as Accent®, orthosulfamuron formulated as Strada® WG, propyrisulfuron formulated as Zeta One®, and rimsulfuron formulated as Matrix® WG.
Treatment requirements for each compound or herbicidal component were calculated based upon the rates being tested, the concentration of active ingredient or acid equivalent in the formulation, an application volume of 2 mL per component per pot, and an application area of 86.59 cm^2 per pot.
For formulated compounds, a measured amount was placed in an individual 100 or 200 mL glass vial and was dissolved in a volume of 1.25% (v/v) Agri-Dex® crop oil concentrate to obtain application solutions.
For technical grade compounds, a weighed amount was placed in an individual 100 to 200 mL glass vial and was dissolved in a volume of acetone to obtain concentrated stock solutions. […] The concentrated stock solutions obtained were diluted with an equivalent volume of an aqueous mixture containing 2.5% (v/v) crop oil concentrate so that the final application solutions contained 1.25% (v/v) crop oil concentrate.
Applications were made by injecting with a pipetter appropriate amounts of the application solutions, individually and sequentially, into the aqueous layer of the paddy. Control plants were treated in the same manner with the solvent blank. Applications were made so that all treated plant material received the same concentrations of acetone and crop oil concentrate. […]

COc1c(Cl)ccc(-c2nc(C(=O)OCc3ccccc3)c(Cl)c(N)c2F)c1F [Compound A Benzyl Ester]
Visual Weed Control (%) Obs ([1]; 4.38 gae/ha): 40%
Visual Weed Control (%) - 20 DAA CYPRO Obs ([2]; Table 50, 4.38 gae/ha alone): 50%
Visual Weed Control (%) - 20 DAA CYPRO Obs ([2]; Table 50, 8.75 gae/ha alone): 0%
Visual Weed Control (%) - 20 DAA CYPRO Obs ([2]; Table 50, 17.5 gae/ha alone): 90%

COCC(=O)OC(c1ncccc1S(=O)(=O)NC(=O)Nc1nc(OC)cc(OC)n1)C(C)F (stereo not drawn) [Flucetosulfuron, 1-[3-[[[[(4,6-dimethoxy-2-pyrimidinyl)amino]carbonyl]amino]sulfonyl]-2-pyridinyl]-2-fluoropropyl 2-methoxyacetate]
Visual Weed Control (%) Obs ([1]; 0.05 gai/ha): 95%
Visual Weed Control (%) Obs ([1]; 0.1 gai/ha): 50%
Visual Weed Control (%) Obs ([1]; 0.2 gai/ha): 30%

COc1c(Cl)ccc(-c2nc(C(=O)O)c(Cl)c(N)c2F)c1F [Compound A Acid, 4-amino-3-chloro-5-fluoro-6-(4-chloro-2-fluoro-3-methoxy-phenyl)pyridine-2-carboxylic acid]
Visual Weed Control (%) - 20 DAA CYPRO Obs ([2]; Table 43, 10.6 gae/ha alone): 10%
Visual Weed Control (%) - 20 DAA CYPRO Obs ([2]; Table 43, 21.2 gae/ha alone): 20%
Visual Weed Control (%) - 20 DAA CYPRO Obs ([2]; Table 49, 10.6 gae/ha alone): 10%
Visual Weed Control (%) - 20 DAA CYPRO Obs ([2]; Table 49, 21.2 gae/ha alone): 20%
Visual Weed Control (%) - 20 DAA CYPRO Obs ([2]; Table 49, 42.4 gae/ha alone): 95%
